{"source": "patent US20230220063A1", "about": "“IL-1BETA BINDING ANTIBODIES FOR USE IN TREATING CANCER” (NOVARTIS AG, priority 2017, published 2023)", "key": {"[1]": {"tested_on": "patients with a prior heart attack and inflammatory atherosclerosis", "test": "CANTOS primary endpoint: major adverse cardiovascular events (MACE)", "type": "in vivo, human", "settings": "in combination with standard of care", "excerpt": "The present invention arose, at least in part, from the analysis of the data generated from the CANTOS trial, which is a randomized, double-blind, placebo-controlled, event-driven trial. […] Participants were followed for incident cancer diagnoses over a median follow-up period of 3.7 years.\nMACE is a composite of cardiovascular death, non-fatal myocardial infarction and non-fatal stroke."}, "[2]": {"tested_on": "MDA-MB-231 Luc2-TdTomato cells", "test": "Spontaneous human breast cancer metastasis to human bone implants in NOD SCID mice", "type": "in vivo", "protocol": "To model human breast cancer metastasis to human bone implants two human bone discs were implanted subcutaneously into 10-week old female NOD SCID mice (n=10/group) under isofluorane anaesthetic. Mice received an injection of 0.003 mg vetergesic and Septrin was added to the drinking water for 1 week following bone implantation. Mice were left for 4 weeks before injecting 1×10^5 MDA-MB-231 Luc2-TdTomato, MCF7 Luc2 or T47D Luc2 cells in 20% Martigel/79% PBS/1% […] into the two hind mammary fat pads. Primary tumor growth and development of metastases was monitored weekly using an IVIS […] system (Caliper Life Sciences) following sub-cutaneous injection of 30 mg/ml D-luciferin (Invitrogen). On termination of experiments mammary tumors, circulating tumor cells, serum and bone metastases were resected. RNA was processed for downstream analysis by real time PCR, and cell lysates were taken for protein analysis and whole tissue for histology as previously described (Nutter et al., 2014; Ottewell et al., 2014a).\nTumor cells, serum, and bone were subsequently resected for downstream analysis.\nWhole blood was centrifuged at 10,000 g for 5 minutes and the serum removed for ELISA assays. The cell pellet was re-suspended in 5 ml of FSM lysis solution (Sigma-Aldrich, Pool, UK) to lyse red blood cells. Remaining cells were re-pelleted, washed 3x in PBS and re-suspended in a solution of PBS/10% FCS. Samples from 10 mice per group were pooled prior to isolation of TdTomato positive tumor cells using a MoFlow High performance cell sorter (Beckman Coulter, Cambridge UK) with the […] laser line from a Coherent I-90C tenable argon ion (Coherent, Santa Clara, CA). TdTomato fluorescence was detected by a 555LP dichroic long pass and a 580/30 nm band pass filter. Acquisition and analysis of cells was performed using Summit 4.3 software. Following sorting cells were immediately placed in RNA protect cell reagent (Ambion, Paisley, Renfrew, UK) and stored at -80° C. before RNA extraction."}, "[3]": {"settings": "murine model of spontaneous human breast cancer metastasis to human bone"}}}
{"substance": "canakinumab: high-affinity, fully human monoclonal antibody of the IgG1/k to interleukin-1β; INN number 8836", "values": [{"measurement": "risk of major adverse cardiovascular events (MACE)", "setting": "[1]", "value": "reduces the risk of major adverse cardiovascular events"}, {"measurement": "mice with metastasis detected in human bone implants", "setting": "[2]; 1 mg/kg IL-1Ra daily or 10 mg/kg canakinumab s.c. every 14 days from day 7, control 7 out of 10", "value": "1 out of 10"}, {"measurement": "bone metastasis, photons/sec mean values", "setting": "[2]; Placebo 3.60E+06", "value": "6.01E+04", "unit": "photons/sec"}, {"measurement": "size of bone metastases", "setting": "[2]; compared with control group", "value": "smaller than those detected in the control group"}, {"measurement": "bone turnover and neovascularisation", "setting": "[2]; mouse, in vivo", "value": "reduced bone turnover and neovascularisation"}, {"measurement": "bone metastasis", "setting": "[2]; [3]", "value": "significantly reduced bone metastasis"}, {"measurement": "primary tumour growth", "setting": "[2]; [3]", "value": "increasing primary tumour growth"}, {"measurement": "tumor cells counted in whole blood", "setting": "[2]; placebo 108 tumor cells/ml", "value": 3, "unit": "tumor cells/ml"}]}
